Data reported in publication PMC4447944 (The Journal of Biological Chemistry, 2015).

Columns and labels:
MDA MB-231 cells = assay: Proliferation assay (CellTiter-Glo); assay type: cell-based, human
Description: Cell viability was measured using CellTiter-Glo^TM (Promega) according to the manufacturer's instructions.

hABL1 = biological target: T1, hABL1 (Homo sapiens, UniProt P00519); assay: KINOMEscan; assay type: binding
T1 construct: purchased DiscoverX (KINOMEscan platform)

hABL2 = biological target: T2, hABL2 (Homo sapiens, UniProt P42684); assay: KINOMEscan; assay type: binding
T2 construct: purchased DiscoverX (KINOMEscan platform)

hACVR2B = biological target: T3, hACVR2B (Homo sapiens, UniProt Q13705); assay: KINOMEscan; assay type: binding
T3 construct: purchased DiscoverX (KINOMEscan platform)

hCAMK1 = biological target: T4, hCAMK1 (Homo sapiens, UniProt Q14012); assay: KINOMEscan; assay type: binding
T4 construct: purchased DiscoverX
T4 sequence (Q14012 whole entry): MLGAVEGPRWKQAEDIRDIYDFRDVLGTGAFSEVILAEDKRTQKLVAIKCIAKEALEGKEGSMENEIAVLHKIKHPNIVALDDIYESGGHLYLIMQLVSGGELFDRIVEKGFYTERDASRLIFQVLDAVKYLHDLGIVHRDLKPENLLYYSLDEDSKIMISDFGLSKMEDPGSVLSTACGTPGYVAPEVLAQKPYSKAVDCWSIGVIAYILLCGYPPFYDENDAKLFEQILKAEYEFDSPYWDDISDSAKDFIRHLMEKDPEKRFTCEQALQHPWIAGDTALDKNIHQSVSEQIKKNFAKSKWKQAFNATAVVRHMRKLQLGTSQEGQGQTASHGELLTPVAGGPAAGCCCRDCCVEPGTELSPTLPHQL

hCHEK1 = biological target: T5, hCHEK1 (Homo sapiens, UniProt O14757); assay: KINOMEscan; assay type: binding
T5 construct: purchased DiscoverX

hCSNK1A1 = biological target: T6, hCSNK1A1 (Homo sapiens, UniProt P48729); assay: KINOMEscan; assay type: binding
T6 construct: purchased DiscoverX (KINOMEscan platform)

hCSNK1E = biological target: T7, hCSNK1E (Homo sapiens, UniProt P49674); assay: KINOMEscan; assay type: binding
T7 construct: purchased DiscoverX (KINOMEscan platform)
T7 sequence (P49674 whole entry): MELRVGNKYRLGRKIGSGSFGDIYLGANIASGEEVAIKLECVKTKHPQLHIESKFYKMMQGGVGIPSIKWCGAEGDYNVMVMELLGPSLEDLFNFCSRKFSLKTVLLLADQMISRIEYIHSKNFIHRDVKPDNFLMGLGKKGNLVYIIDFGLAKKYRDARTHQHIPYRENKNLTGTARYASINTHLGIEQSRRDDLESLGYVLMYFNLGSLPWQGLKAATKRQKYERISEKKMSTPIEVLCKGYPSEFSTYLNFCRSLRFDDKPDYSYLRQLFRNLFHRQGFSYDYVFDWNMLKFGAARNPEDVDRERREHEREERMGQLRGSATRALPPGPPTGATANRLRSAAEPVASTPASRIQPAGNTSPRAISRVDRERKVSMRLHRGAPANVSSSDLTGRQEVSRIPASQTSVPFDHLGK

hDRAK1 = biological target: T8, hDRAK1 (Homo sapiens, UniProt Q9UEE5); assay: KINOMEscan; assay type: binding
T8 construct: purchased DiscoverX
T8 sequence (Q9UEE5 whole entry): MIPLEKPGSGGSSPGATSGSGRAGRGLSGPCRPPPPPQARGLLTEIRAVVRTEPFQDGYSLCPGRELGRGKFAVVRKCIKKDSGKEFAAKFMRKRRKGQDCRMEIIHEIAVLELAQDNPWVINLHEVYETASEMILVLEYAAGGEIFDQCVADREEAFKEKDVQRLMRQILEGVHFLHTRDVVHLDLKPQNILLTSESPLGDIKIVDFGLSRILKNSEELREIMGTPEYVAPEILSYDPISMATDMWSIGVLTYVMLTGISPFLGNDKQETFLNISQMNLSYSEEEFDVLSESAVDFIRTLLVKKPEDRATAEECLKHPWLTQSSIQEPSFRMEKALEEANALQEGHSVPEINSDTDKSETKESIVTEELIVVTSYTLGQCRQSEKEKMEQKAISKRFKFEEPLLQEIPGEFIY

hDYRK1B = biological target: T9, hDYRK1B (Homo sapiens, UniProt Q9Y463); assay: KINOMEscan; assay type: binding; details: read-out: Inhibition at the 20 μM dose
T9 construct: purchased DiscoverX

hEPHA5 = biological target: T10, hEPHA5 (Homo sapiens, UniProt P54756); assay: KINOMEscan; assay type: binding
T10 construct: purchased DiscoverX

hFLT3(R834Q) = biological target: T11, hFLT3(R834Q) (Homo sapiens, UniProt P36888, R834Q); assay: KINOMEscan; assay type: binding
T11 construct: purchased DiscoverX

hGRK4 = biological target: T12, hGRK4 (Homo sapiens, UniProt P32298); assay: KINOMEscan; assay type: binding
T12 construct: purchased DiscoverX

hHIPK2 = biological target: T13, hHIPK2 (Homo sapiens, UniProt Q9H2X6); assay: KINOMEscan; assay type: binding
T13 construct: purchased DiscoverX

hIKK-alpha = biological target: T14, hIKK-alpha (Homo sapiens, UniProt O15111); assay: KINOMEscan; assay type: binding
T14 construct: purchased DiscoverX (KINOMEscan panel)

hLIMK1 = biological target: T15, hLIMK1 (Homo sapiens, UniProt P53667); assay: KINOMEscan; assay type: binding
T15 construct: purchased DiscoverX (KINOMEscan platform)

hLZK = biological target: T16, hLZK (Homo sapiens, UniProt O43283); assay: KINOMEscan; assay type: binding
T16 construct: purchased DiscoverX (KINOMEscan platform)
T16 sequence (O43283 whole entry): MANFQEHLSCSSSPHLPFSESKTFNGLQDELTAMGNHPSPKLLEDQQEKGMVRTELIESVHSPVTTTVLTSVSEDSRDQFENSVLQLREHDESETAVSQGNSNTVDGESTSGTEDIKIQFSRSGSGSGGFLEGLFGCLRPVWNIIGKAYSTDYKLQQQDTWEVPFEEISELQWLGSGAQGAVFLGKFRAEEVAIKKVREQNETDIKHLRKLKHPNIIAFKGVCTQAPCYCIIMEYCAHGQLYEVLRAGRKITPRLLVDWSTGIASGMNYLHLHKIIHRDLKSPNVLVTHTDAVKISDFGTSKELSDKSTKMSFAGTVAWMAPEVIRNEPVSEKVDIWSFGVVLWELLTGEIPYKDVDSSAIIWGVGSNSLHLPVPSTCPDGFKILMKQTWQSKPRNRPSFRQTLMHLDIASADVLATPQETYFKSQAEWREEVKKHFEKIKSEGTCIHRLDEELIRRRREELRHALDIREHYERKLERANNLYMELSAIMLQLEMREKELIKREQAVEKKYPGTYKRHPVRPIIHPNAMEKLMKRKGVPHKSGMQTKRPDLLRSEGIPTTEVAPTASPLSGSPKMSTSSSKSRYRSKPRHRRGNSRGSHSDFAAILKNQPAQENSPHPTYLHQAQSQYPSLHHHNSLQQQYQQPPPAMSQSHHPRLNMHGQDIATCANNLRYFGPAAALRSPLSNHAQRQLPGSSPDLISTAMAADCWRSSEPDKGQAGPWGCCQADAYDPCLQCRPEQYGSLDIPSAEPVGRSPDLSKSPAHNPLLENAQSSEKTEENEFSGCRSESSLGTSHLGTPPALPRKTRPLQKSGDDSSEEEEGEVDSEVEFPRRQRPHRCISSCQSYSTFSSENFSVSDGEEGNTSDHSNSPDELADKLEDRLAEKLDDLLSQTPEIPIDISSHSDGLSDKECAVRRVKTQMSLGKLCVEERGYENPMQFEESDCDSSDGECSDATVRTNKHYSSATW

hMAPKAPK2 = biological target: T17, hMAPKAPK2 (Homo sapiens, UniProt P49137); assay: KINOMEscan; assay type: binding
T17 construct: purchased DiscoverX

hMEK5 = biological target: T18, hMEK5 (Homo sapiens, UniProt Q13163); assay: KINOMEscan; assay type: binding
T18 construct: purchased DiscoverX

hMET(M1250T) = biological target: T19, hMET(M1250T) (Homo sapiens, UniProt P08581, M1250T); assay: KINOMEscan; assay type: binding
T19 construct: purchased DiscoverX

hRET = biological target: T20, hRET (Homo sapiens, UniProt P07949); assay: KINOMEscan; assay type: binding
T20 construct: purchased DiscoverX (KINOMEscan platform)

hROCK1 = biological target: T21, hROCK1 (Homo sapiens, UniProt Q13464); assay: KINOMEscan; assay type: binding
T21 construct: purchased DiscoverX (KINOMEscan platform)

[1] = biological target: T22, hRPS6KA4(Kin.Dom.2-C-term) (Homo sapiens, UniProt O75676); assay: KINOMEscan; assay type: binding
T22 construct: hRPS6KA4(Kin.Dom.2-C-term); purchased DiscoverX (KINOMEscan platform)

hRSK1(Kin.Dom.2-C-term) = biological target: T23, hRSK1(Kin.Dom.2-C-term) (Homo sapiens, UniProt Q15418); assay: KINOMEscan; assay type: binding
T23 construct: hRSK1(Kin.Dom.2-C-term); purchased DiscoverX (KINOMEscan platform)

hRSK3(Kin.Dom.1-N-term) = biological target: T24, hRSK3(Kin.Dom.1-N-term) (Homo sapiens, UniProt Q15349); assay: KINOMEscan; assay type: binding
T24 construct: hRSK3(Kin.Dom.1-N-term); purchased DiscoverX (KINOMEscan platform)
T24 sequence (Q15349 59-318 limits assumed): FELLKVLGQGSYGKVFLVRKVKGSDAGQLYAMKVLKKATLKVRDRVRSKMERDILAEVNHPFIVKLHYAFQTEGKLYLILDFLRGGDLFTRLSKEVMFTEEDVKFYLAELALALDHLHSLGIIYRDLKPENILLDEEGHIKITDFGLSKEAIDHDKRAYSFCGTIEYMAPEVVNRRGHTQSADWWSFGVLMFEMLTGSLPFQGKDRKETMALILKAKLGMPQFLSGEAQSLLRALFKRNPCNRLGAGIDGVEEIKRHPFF

hRSK4(Kin.Dom.2-C-term) = biological target: T25, hRSK4(Kin.Dom.2-C-term) (Homo sapiens, UniProt Q9UK32); assay: KINOMEscan; assay type: binding
T25 construct: hRSK4(Kin.Dom.2-C-term); purchased DiscoverX (KINOMEscan platform)

hTAOK2 = biological target: T26, hTAOK2 (Homo sapiens, UniProt Q9UL54); assay: KINOMEscan; assay type: binding
T26 construct: purchased DiscoverX

hTESK1 = biological target: T27, hTESK1 (Homo sapiens, UniProt Q15569); assay: KINOMEscan; assay type: binding
T27 construct: purchased DiscoverX
T27 sequence (Q15569 whole entry): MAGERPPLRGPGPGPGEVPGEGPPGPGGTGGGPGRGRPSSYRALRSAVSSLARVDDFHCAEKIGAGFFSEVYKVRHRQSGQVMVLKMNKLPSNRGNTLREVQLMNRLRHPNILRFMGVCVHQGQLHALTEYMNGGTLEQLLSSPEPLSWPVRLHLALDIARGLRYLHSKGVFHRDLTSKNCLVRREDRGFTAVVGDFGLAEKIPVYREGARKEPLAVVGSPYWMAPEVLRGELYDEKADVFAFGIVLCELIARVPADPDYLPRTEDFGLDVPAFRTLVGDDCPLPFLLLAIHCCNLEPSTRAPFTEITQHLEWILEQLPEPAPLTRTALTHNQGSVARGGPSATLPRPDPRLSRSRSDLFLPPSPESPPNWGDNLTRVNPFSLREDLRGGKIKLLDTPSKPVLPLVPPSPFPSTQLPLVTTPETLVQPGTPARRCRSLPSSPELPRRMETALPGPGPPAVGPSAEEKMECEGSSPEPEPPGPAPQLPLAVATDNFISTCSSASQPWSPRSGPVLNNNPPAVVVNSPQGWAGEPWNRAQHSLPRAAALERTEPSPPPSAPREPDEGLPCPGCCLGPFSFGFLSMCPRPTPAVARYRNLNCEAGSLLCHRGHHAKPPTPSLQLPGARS

hTGFBR2 = biological target: T28, hTGFBR2 (Homo sapiens, UniProt P37173); assay: KINOMEscan; assay type: binding
T28 construct: purchased DiscoverX
T28 sequence (P37173 23-567): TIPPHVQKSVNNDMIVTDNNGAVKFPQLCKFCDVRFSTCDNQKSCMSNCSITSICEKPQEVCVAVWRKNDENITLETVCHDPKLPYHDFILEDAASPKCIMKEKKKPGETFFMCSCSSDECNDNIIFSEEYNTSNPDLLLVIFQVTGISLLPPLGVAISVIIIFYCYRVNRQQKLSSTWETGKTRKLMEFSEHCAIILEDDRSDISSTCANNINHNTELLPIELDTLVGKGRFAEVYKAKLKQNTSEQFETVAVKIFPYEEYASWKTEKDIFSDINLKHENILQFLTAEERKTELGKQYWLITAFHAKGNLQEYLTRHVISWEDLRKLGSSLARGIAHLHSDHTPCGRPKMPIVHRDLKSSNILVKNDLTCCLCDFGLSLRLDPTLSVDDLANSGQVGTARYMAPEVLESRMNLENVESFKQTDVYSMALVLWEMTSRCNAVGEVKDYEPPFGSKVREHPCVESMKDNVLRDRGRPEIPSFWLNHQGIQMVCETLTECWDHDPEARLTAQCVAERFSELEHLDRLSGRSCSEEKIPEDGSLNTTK

hTIE2 = biological target: T29, hTIE2 (Homo sapiens, UniProt Q02763); assay: KINOMEscan; assay type: binding
T29 construct: purchased DiscoverX

hTRKB = biological target: T30, hTRKB (Homo sapiens, UniProt Q16620); assay: KINOMEscan; assay type: binding
T30 construct: purchased DiscoverX
T30 sequence (Q16620 32-822): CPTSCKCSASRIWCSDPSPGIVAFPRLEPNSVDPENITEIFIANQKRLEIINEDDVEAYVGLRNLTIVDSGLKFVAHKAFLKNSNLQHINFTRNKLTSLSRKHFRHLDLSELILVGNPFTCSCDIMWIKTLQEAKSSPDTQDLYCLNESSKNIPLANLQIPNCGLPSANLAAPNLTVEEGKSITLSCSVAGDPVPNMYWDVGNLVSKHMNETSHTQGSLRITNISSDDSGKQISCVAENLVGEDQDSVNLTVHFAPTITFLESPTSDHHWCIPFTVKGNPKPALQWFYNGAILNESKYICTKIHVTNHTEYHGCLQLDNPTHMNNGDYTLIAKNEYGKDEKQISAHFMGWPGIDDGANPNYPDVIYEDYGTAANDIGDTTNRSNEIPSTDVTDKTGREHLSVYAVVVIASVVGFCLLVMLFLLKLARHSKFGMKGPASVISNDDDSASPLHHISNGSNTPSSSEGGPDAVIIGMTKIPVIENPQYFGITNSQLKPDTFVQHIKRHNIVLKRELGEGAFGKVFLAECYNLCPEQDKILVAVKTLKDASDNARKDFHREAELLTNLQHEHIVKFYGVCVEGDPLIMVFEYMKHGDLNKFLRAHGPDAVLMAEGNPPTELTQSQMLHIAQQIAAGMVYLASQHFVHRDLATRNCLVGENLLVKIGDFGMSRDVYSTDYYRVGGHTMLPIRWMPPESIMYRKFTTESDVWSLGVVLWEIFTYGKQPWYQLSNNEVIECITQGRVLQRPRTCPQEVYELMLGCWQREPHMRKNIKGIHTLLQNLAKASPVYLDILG

hVEGFR2 = biological target: T31, hVEGFR2 (Homo sapiens, UniProt P35968); assay: KINOMEscan; assay type: binding
T31 construct: purchased DiscoverX

hYANK1 = biological target: T32, hYANK1 (Homo sapiens, UniProt Q8WU08); assay: KINOMEscan; assay type: binding
T32 construct: purchased DiscoverX

hYANK2 = biological target: T33, hYANK2 (Homo sapiens, UniProt Q9NY57); assay: KINOMEscan; assay type: binding
T33 construct: purchased DiscoverX
T33 sequence (Q9NY57 whole entry): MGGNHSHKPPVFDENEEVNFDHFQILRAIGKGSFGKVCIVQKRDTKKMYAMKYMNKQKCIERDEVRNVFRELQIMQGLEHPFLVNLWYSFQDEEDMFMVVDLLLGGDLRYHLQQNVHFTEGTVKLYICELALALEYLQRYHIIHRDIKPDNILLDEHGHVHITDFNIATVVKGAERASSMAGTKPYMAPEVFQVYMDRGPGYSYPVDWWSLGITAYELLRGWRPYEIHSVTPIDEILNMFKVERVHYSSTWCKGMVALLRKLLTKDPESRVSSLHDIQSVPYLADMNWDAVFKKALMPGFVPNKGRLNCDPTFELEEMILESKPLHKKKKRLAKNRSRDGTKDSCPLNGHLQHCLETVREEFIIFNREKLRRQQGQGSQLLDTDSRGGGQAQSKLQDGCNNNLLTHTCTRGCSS

hRARβ = biological target: T34, hRARβ (Homo sapiens, UniProt P10826); assay: Nuclear hormone receptor assay (Eurofins-CEREP); details: read-out: Relative IC50
T34 construct: Eurofins-CEREP

## Cc1cn(CCN2CCN(c3ccccc3-c3cc(C#N)cc(C(=O)NCCCN4CCCC4)c3)CC2)c2ccccc12 [LLY-507, 3-cyano-5-{2-[4-[2-(3-methylindol-1-yl)ethyl]piperazin-1-yl]-phenyl}-N-[(3-pyrrolidin-1-yl)propyl]benzamide]
MDA MB-231 cells
  increase in sensitivity at 7 days compared with 3 to 4-day treatment: > 5 fold
hABL1
  IC50: > 20 µM
hABL2
  IC50: > 20 µM
hACVR2B
  IC50: > 20 µM
hCAMK1
  IC50: > 20 µM
hCHEK1
  IC50: > 20 µM
hCSNK1A1
  IC50: > 20 µM
hCSNK1E
  IC50: > 20 µM
hDRAK1
  IC50: > 20 µM
hDYRK1B
  inhibition at 20 µM: < 50%
hEPHA5
  IC50: > 20 µM
hFLT3(R834Q)
  IC50: > 20 µM
hGRK4
  IC50: > 20 µM
hHIPK2
  IC50: > 20 µM
hIKK-alpha
  IC50: > 20 µM
hLIMK1
  IC50: > 20 µM
hLZK
  IC50: > 20 µM
hMAPKAPK2
  IC50: > 20 µM
hMEK5
  IC50: > 20 µM
hMET(M1250T)
  IC50: > 20 µM
hRET
  IC50: > 20 µM
hROCK1
  IC50: > 20 µM
[1]
  IC50: > 20 µM
hRSK1(Kin.Dom.2-C-term)
  IC50: > 20 µM
hRSK3(Kin.Dom.1-N-term)
  IC50: > 20 µM
hRSK4(Kin.Dom.2-C-term)
  IC50: > 20 µM
hTAOK2
  IC50: > 20 µM
hTESK1
  IC50: > 20 µM
hTGFBR2
  IC50: > 20 µM
hTIE2
  IC50: > 20 µM
hTRKB
  IC50: > 20 µM
hVEGFR2
  IC50: > 20 µM
hYANK1
  IC50: > 20 µM
hYANK2
  IC50: > 20 µM
hRARβ
  IC50: > 10 µM
